Tested on: 885512-296-R-J2-PDC complex spheroid growth, % test/control
Assay: Anticancer human tumor 885512-296-R-J2-PDC patient-derived breast carcinoma cell line growth inhibition [Asc]
Settings: for IC50: curve of first compound; for viability, T/C: stronger effect = lower value
Outline: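 Tumor cells were grown as multicellular spheroids with stromal HUVEC and mesenchymal stem cells and treated singly or in combination. Concentrations fell in half-log steps from the clinical Cmax, or from 10 microM where none was known.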

[1] = second compound 0.03 µM, first compound 0.0316 µM
[2] = second compound 0.03 µM, first compound 0.1 µM
[3] = second compound 0.03 µM, first compound 0.316 µM
[4] = second compound 0.03 µM, first compound 1 µM
[5] = second compound 0.03 µM, first compound 3.16 µM
[6] = second compound 0.03 µM, first compound 10 µM
[7] = second compound 0.0949 µM, first compound 0.0316 µM
[8] = second compound 0.0949 µM, first compound 0.1 µM
[9] = second compound 0.0949 µM, first compound 0.316 µM
[10] = second compound 0.0949 µM, first compound 1 µM
[11] = second compound 0.0949 µM, first compound 3.16 µM
[12] = second compound 0.0949 µM, first compound 10 µM
[13] = second compound 0.3 µM, first compound 0.0316 µM
[14] = second compound 0.3 µM, first compound 0.1 µM
[15] = second compound 0.3 µM, first compound 0.316 µM
[16] = second compound 0.3 µM, first compound 1 µM
[17] = second compound 0.3 µM, first compound 3.16 µM
[18] = second compound 0.3 µM, first compound 10 µM
[19] = second compound 0.949 µM, first compound 0.0316 µM
[20] = second compound 0.949 µM, first compound 0.1 µM
[21] = second compound 0.949 µM, first compound 0.316 µM
[22] = second compound 0.949 µM, first compound 1 µM
[23] = second compound 0.949 µM, first compound 3.16 µM
[24] = second compound 0.949 µM, first compound 10 µM
[25] = second compound 3 µM, first compound 0.0316 µM
[26] = second compound 3 µM, first compound 0.1 µM
[27] = second compound 3 µM, first compound 0.316 µM
[28] = second compound 3 µM, first compound 1 µM
[29] = second compound 3 µM, first compound 3.16 µM
[30] = second compound 3 µM, first compound 10 µM
[31] = second compound 0.03 µM, first compound 0.00316 µM
[32] = second compound 0.03 µM, first compound 0.01 µM
[33] = second compound 0.0949 µM, first compound 0.00316 µM
[34] = second compound 0.0949 µM, first compound 0.01 µM
[35] = second compound 0.3 µM, first compound 0.00316 µM
[36] = second compound 0.3 µM, first compound 0.01 µM
[37] = second compound 0.949 µM, first compound 0.00316 µM
[38] = second compound 0.949 µM, first compound 0.01 µM
[39] = second compound 3 µM, first compound 0.00316 µM
[40] = second compound 3 µM, first compound 0.01 µM
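Note: spheroids exposed to compounds for seven days.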
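Throughout, for viability, T/C: 100% = DMSO vehicle control wells.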

Compound	IC50 (second compound 0.03 µM)	IC50 (second compound 0.0949 µM)	IC50 (second compound 0.3 µM)	IC50 (second compound 0.949 µM)	IC50 (second compound 3 µM)	viability, T/C [1]	viability, T/C [2]	viability, T/C [3]	viability, T/C [4]	viability, T/C [7]	viability, T/C [8]	viability, T/C [9]	viability, T/C [10]	viability, T/C [13]	viability, T/C [14]	viability, T/C [15]	viability, T/C [16]	viability, T/C [19]	viability, T/C [20]	viability, T/C [21]	further results
C#Cc1c(F)ccc2cc(O)cc(-c3ncc4c(N5CC6CCC(C5)N6)nc(OCC56CCCN5CC(F)C6)nc4c3F)c12 (stereo not given) + CCN1C(C(=O)NC23CCC(C(=O)O)(CC2)CC3)C(c2cccc(Cl)c2F)C2(C(=O)Nc3cc(Cl)ccc32)C12CCCCC2	> 10000 nM	> 10000 nM	> 10000 nM	> 10000 nM	< 31.6 nM	105%	98%	107%	82.8%	117%	101%	91.4%	89.1%	95.7%	86.5%	93.3%	82.4%	80.5%	59.9%	69.1%	viability, T/C [5]: 107%; viability, T/C [6]: 80.3%; viability, T/C [11]: 95.6%; viability, T/C [12]: 83.2%; viability, T/C [17]: 78.3%; viability, T/C [18]: 88.7%; viability, T/C [22]: 64.7%; viability, T/C [23]: 70%; viability, T/C [24]: 84.7%; viability, T/C [25]: 53.7%; viability, T/C [26]: 42.1%; viability, T/C [27]: 38%; viability, T/C [28]: 43.5%; viability, T/C [29]: 51.2%; viability, T/C [30]: 61.7%
C=C(F)C(=O)N1CCN(c2nc(OCC3CCCN3C)nc3c2CCN(c2cccc4cccc(Cl)c24)C3)CC1CC#N (stereo not given) + CCN1C(C(=O)NC23CCC(C(=O)O)(CC2)CC3)C(c2cccc(Cl)c2F)C2(C(=O)Nc3cc(Cl)ccc32)C12CCCCC2	2290 nM	2460 nM	2240 nM	1900 nM	1050 nM	96.3%	110%	101%	110%	118%	117%	120%	107%	94%	95.1%	98.2%	102%	69%	72%	76.9%	viability, T/C [5]: 28.6%; viability, T/C [6]: 0.11%; viability, T/C [11]: 34%; viability, T/C [12]: 0.38%; viability, T/C [17]: 29.5%; viability, T/C [18]: 0.1%; viability, T/C [22]: 90.1%; viability, T/C [23]: 28.6%; viability, T/C [24]: 0.1%; viability, T/C [25]: 43%; viability, T/C [26]: 43.3%; viability, T/C [27]: 51.5%; viability, T/C [28]: 67.5%; viability, T/C [29]: 19.8%; viability, T/C [30]: 0.15%
C=CC(=O)N1CCN(c2nc(=O)n(-c3c(C)ccnc3C(C)C)c3nc(-c4c(O)cccc4F)c(F)cc23)C(C)C1 (stereo not given) + CCN1C(C(=O)NC23CCC(C(=O)O)(CC2)CC3)C(c2cccc(Cl)c2F)C2(C(=O)Nc3cc(Cl)ccc32)C12CCCCC2	> 10000 nM	> 10000 nM	> 10000 nM	> 10000 nM	< 31.6 nM	93.7%	96.8%	111%	112%	73.5%	108%	114%	108%	89.8%	88.3%	117%	95.3%	68.7%	71.2%	70%	viability, T/C [5]: 101%; viability, T/C [6]: 61.3%; viability, T/C [11]: 96.3%; viability, T/C [12]: 64%; viability, T/C [17]: 101%; viability, T/C [18]: 72%; viability, T/C [22]: 86.9%; viability, T/C [23]: 91.8%; viability, T/C [24]: 61%; viability, T/C [25]: 38.8%; viability, T/C [26]: 52.6%; viability, T/C [27]: 46.4%; viability, T/C [28]: 61.1%; viability, T/C [29]: 58.5%; viability, T/C [30]: 52.2%

Now from value to molecule, other results behind:

IC50 (second compound 0.03 µM)	IC50 (second compound 0.0949 µM)	IC50 (second compound 0.3 µM)	IC50 (second compound 0.949 µM)	IC50 (second compound 3 µM)	Compound	viability, T/C [1]	viability, T/C [2]	viability, T/C [3]	viability, T/C [4]	viability, T/C [7]	viability, T/C [8]	viability, T/C [9]	viability, T/C [10]	viability, T/C [13]	viability, T/C [14]	viability, T/C [15]	viability, T/C [16]	viability, T/C [19]	viability, T/C [20]	viability, T/C [21]	further results
> 1000 nM	> 1000 nM	> 1000 nM	> 1000 nM	< 3.16 nM	CNC(C)C(=O)NC1CN(S(=O)(=O)c2cccc(S(=O)(=O)N3CCC4CCC(C(=O)NC(c5ccccc5)c5ccccc5)N4C(=O)C(NC(=O)C(C)NC)C3)c2)CCC2CCC(C(=O)NC(c3ccccc3)c3ccccc3)N2C1=O (stereo not given) + CCN1C(C(=O)NC23CCC(C(=O)O)(CC2)CC3)C(c2cccc(Cl)c2F)C2(C(=O)Nc3cc(Cl)ccc32)C12CCCCC2	99.8%	94.2%	126%	109%	90.3%	112%	120%	115%	91.6%	93%	103%	112%	76.6%	87.6%	91.9%	viability, T/C [31]: 92.3%; viability, T/C [32]: 90.4%; viability, T/C [33]: 77.6%; viability, T/C [34]: 110%; viability, T/C [35]: 84.3%; viability, T/C [36]: 88.7%; viability, T/C [37]: 75.3%; viability, T/C [38]: 72.8%; viability, T/C [22]: 86.6%; viability, T/C [39]: 41.4%; viability, T/C [40]: 37.4%; viability, T/C [25]: 49%; viability, T/C [26]: 59.5%; viability, T/C [27]: 59%; viability, T/C [28]: 62.6%
285 nM	259 nM	204 nM	126 nM	< 3.16 nM	COc1c(OCCCN2CCOCC2)ccc2c3n(c(=NC(=O)c4cnc(N)nc4)nc12)CCN3 + CCN1C(C(=O)NC23CCC(C(=O)O)(CC2)CC3)C(c2cccc(Cl)c2F)C2(C(=O)Nc3cc(Cl)ccc32)C12CCCCC2	93.5%	72.6%	48.3%	6.36%	79.8%	64.7%	47.4%	6.12%	80.1%	63.2%	41.2%	6.26%	64.4%	50%	38.8%	viability, T/C [31]: 80.1%; viability, T/C [32]: 87.9%; viability, T/C [33]: 73.7%; viability, T/C [34]: 88.1%; viability, T/C [35]: 82.7%; viability, T/C [36]: 68.5%; viability, T/C [37]: 61.5%; viability, T/C [38]: 54.5%; viability, T/C [22]: 6.82%; viability, T/C [39]: 47.1%; viability, T/C [40]: 32.4%; viability, T/C [25]: 28.6%; viability, T/C [26]: 35.4%; viability, T/C [27]: 32.6%; viability, T/C [28]: 6.56%

Source: PubChem BioAssay AID1963447 (Molecular Pharmacology Branch, DTP, NCI, 2024)
